According to publication PMC7211202 (Investigational New Drugs, 2019):
Values joined by “and” are separate entries in the source; they are usually repeats but may differ in a detail not shown here. Identical values can stand only once. “Also recorded” adds a separate entry of the source.

How the values were obtained:
MDM2-amplified tumors = details: cited from earlier work
[1] = test system: P53WT solid tumors or multiple myeloma; test: Tumor response (RECIST 1.1, Macdonald, IMWG criteria); assay type: in vivo, human
Description: Efficacy response was assessed using revised Response Evaluation Criteria in Solid Tumors (RECIST), version 1.1 [25] Macdonald criteria for GBM [26] or International Myeloma Working Group (IMWG) response criteria for multiple myeloma.

MDM2-p53 interaction = details: cited from earlier work
[2] = Dose-limiting toxicities and maximum tolerated dose; assay type: in vivo
Description: This open-label phase 1 study was conducted at 16 centers (ClinicalTrials.gov, NCT01723020). TP53 mutation status was confirmed by central laboratory assessment. The study was planned with two parts: a 3-part dose escalation (Part 1) and a dose expansion (Part 2). […] Intermediate doses were allowed when deemed appropriate. The dose expansion was planned for patients with MDM2-amplified tumors (group 1; liposarcomas, GBM, and other solid tumors), potentially MDM2-overexpressing tumors (group 2; ER+ metastatic breast cancer), or multiple myeloma (group 3).
Each patient was monitored for 21 days for the occurrence of dose-limiting toxicities (DLTs), defined as febrile neutropenia, neutropenic infection, grade 4 neutropenia lasting >7 days, grade ≥ 3 thrombocytopenia lasting >7 days (solid tumors only), grade 3 thrombocytopenia with grade ≥ 2 bleeding (solid tumors only), grade 3 or 4 thrombocytopenia with grade > 1 bleeding (multiple myeloma only), grade 4 thrombocytopenia (solid tumors only), or grade 4 thrombocytopenia lasting >14 days (multiple myeloma only), or as grade ≥ 3 nausea, vomiting, or diarrhea after support; grade 3 fatigue lasting >7 days; any other grade ≥ 3 adverse event (AE); grade ≥ 3 kidney injury (multiple myeloma only), or treatment-related AEs not returning to grade ≤ 1 (solid tumors only) per Common Terminology Criteria for Adverse Events (CTCAE), version 4.0. […] Treatment continued until disease progression, intolerable toxicity, or withdrawal of consent.

[3] = 240-mg dose expansion, ER + PR+ breast cancer
[4] = 240-mg dose expansion, ER + PR– breast cancer
[5] = 240-mg dose expansion, breast cancer
[6] = 240-mg dose expansion, multiple myeloma
[7] = 240-mg dose expansion, other solid tumors

CC(C)[C@@H](CS(=O)(=O)C(C)C)N1C(=O)[C@@](C)(CC(=O)O)C[C@H](c2cccc(Cl)c2)[C@H]1c1ccc(Cl)cc1 [AMG 232]
effect of treatment in tumor xenograft models (MDM2-amplified tumors): tumor growth inhibition
effect on MDM2-amplified tumors in xenograft models (MDM2-amplified tumors; through induction of growth arrest and apoptosis): regression
Stable disease as a best result ([1]; 240-mg dose expansion, DDLPS): 7 of 10
median duration of stable disease ([1]; 240-mg dose expansion, DDLPS): 2.0 months
duration of stable disease, range [1, 3]: 0.9–4.0 months
median duration of stable disease [1, 3]: 2.0 months
duration of stable disease, range [1, 4]: 0.9–3.8 months
median duration of stable disease [1, 4]: 1.4 months
Stable disease as a best result ([1]; 240-mg dose expansion, GBM): six of 10 and 6 of 10
median duration of stable disease ([1]; 240-mg dose expansion, GBM): 1.8 months
duration of stable disease, range ([1]; 240-mg dose expansion, WDLPS): 1.9–6.1 months
median duration of stable disease ([1]; 240-mg dose expansion, WDLPS): 3.9 months
Stable disease as a best result [1, 5]: 7 of 12
duration of stable disease, range [1, 5]: 1.7–4.0 months
median duration of stable disease [1, 5]: 1.4–2.0 months and 2.0 months
Stable disease as a best result [1, 6]: 5 of 10
duration of stable disease, range [1, 6]: 1.2–2.0 months
Stable disease as a best result [1, 7]: 10 of 16
median duration of stable disease [1, 7]: 3.3 months
Patients with progressive disease ([1]; 240-mg dose expansion, overall): 15 (22%) n (%)
Patients with stable disease ([1]; 240-mg dose expansion, overall): 45 (66%) n (%)
duration of stable disease, range ([1]; 240-mg dose expansion, overall): 0.5–12.9 months
median duration of stable disease ([1]; 240-mg dose expansion, overall): 2.0 months
Patients with unconfirmed partial responses ([1]; central evaluation): 4%
Duration of unconfirmed partial response ([1]; central evaluation, patient with WDLPS): 2.4 months
Duration of unconfirmed partial response ([1]; central evaluation, patient with breast cancer): 2.0 months
Duration of unconfirmed partial response ([1]; central evaluation, patient with squamous cell carcinoma): 0.1 months
Patients with stable disease ([1]; dose escalation): 31 (80%) n (%)
duration of stable disease, range ([1]; dose escalation): 0.7–22.4 mo
median duration of stable disease ([1]; dose escalation): 3.1 months
Patients with non-complete response/non-progressive disease ([1]; dose escalation, based on non-target lesions): 2 (5%) n (%)
Objective responses ([1]; local evaluation, dose escalation and expansion): no responses; also recorded: no objective response
affinity of blocking the MDM2-p53 interaction (MDM2-p53 interaction): picomolar
DLT observed ([2]; 120-mg cohort, patient with esophageal cancer): grade 3 thrombocytopenia on day 15 that worsened to grade 4 on day 17
Additional patients with cytopenias (grade 4 neutropenia; grade 4 thrombocytopenia) outside of the 21-day DLT evaluation window ([2]; 300-mg cohort): Two
DLT observed ([2]; 360-mg cohort, patient with rectal cancer): grade 4 thrombocytopenia on day 28
DLT observed ([2]; 480-mg cohort, patient with head and neck cancer): grade 3 neutropenia on day 22 that delayed treatment in the next cycle
highest safe and tolerable dose ([2]; DLTs and delayed cytopenias considered, QD 7 days Q3W): 240 mg
MTD (protocol-specified definition using DLTs incidence) ([2]; QD for 7 days Q3W, doses up to 480 mg): not reached
Patients with DLTs ([2]; dose escalation): Three
